`CC(C)(C)c1ccc(-n2c(CC(=O)O)c(C(=O)O)c3cc(Oc4ccc(C(=O)O)cn4)c(Cl)cc32)cc1` gave a melting point of 223 to 235 °C. With `CCCc1c(OCCCOc2ccc(C(C)=O)c(OCCCC(=O)O)c2CCC)ccc(C(C)=O)c1O` the melting point was 50 to 53 °C. With `COc1ccc(-c2c(O)c3ccccc3[nH]c2=O)cc1OC` the melting point was 312 to 314 °C. `Nc1nc2ccccc2c2c1ncn2CCCCNC(=O)[C@@H]1C[C@H]1c1ccccc1` (relative stereo) gave a melting point of 77 °C. Compound `CCn1c2ccccc2c2sccc(=O)c21` has a melting point of 103 to 104 °C. `OCCSc1c(Cl)c(Cl)c(SCCO)c(Cl)c1Cl` showed a melting point of 149 to 152 °C. For `CCCCCP(=O)(O)CCCN`, the melting point was 232 to 236 °C. `C=C1CCCCCCCSC[C@@H](C(=O)OCC)NC1=O` showed a melting point of 146 to 147 °C. `N#CCCN1CCCCC1=Nc1ccccc1N1CCOCC1` gave a melting point of 148 °C. Work on `O=C(c1ccc(-c2ccc(C(CC3CCOCC3)c3ccc(S(=O)(=O)C4CC4)cc3)[nH]2)nc1)N1CCOCC1` (stereo not given) yielded a melting point of 114 to 116 °C. Compound `COCc1nc(-c2ccc(Br)c(C)c2)no1` has a melting point of 52 to 53.5 °C. For `O=C(O)COC1=C(Cc2ccc3c(Br)cccc3c2)C(=O)CCC1`, the melting point was 234 to 236 °C. With `CC(Oc1cc(Oc2ccc(C(F)(F)F)cc2Cl)ccc1[N+](=O)[O-])C(=O)NCC1CCCO1` (stereo not given) the melting point was 102 to 104 °C. For `Nc1ccc(OC(F)(F)F)cc1CO`, the melting point was 75.9 to 77.6 °C. `C#Cc1cccc(Nc2ncnc3ccc(-c4ccccc4C(=O)OCC)cc23)c1` gave a melting point of 174 to 177 °C. For `COc1ccc(-c2ncnc(C(F)(F)F)c2Cl)cc1`, the melting point was 104 to 106 °C. With `Cc1ncc(CCCOc2c(C)cc(C#N)cc2C)s1` the melting point was 64 to 66 °C. Work on `CCOCc1nc2c(N)nc3ccccc3c2n1CCc1cc(-c2ccc(F)cc2)no1` yielded a melting point of 180 to 181 °C. Compound `Cc1c(C)c2c(c(C)c1NC(=O)OC(C)(C)C)C(c1ccc(C(C)C)cc1)C(C)(C)O2` (stereo not given) has a melting point of 119 to 120 °C. With `COc1ccc(NC2SC(=O)NC2=O)cc1` (stereo not given) the melting point was 180 to 181 °C. In the case of `CCCCOC(=O)c1cc([N+](=O)[O-])ccc1N`, the melting point is reported as 91 to 93 °C. Compound `Cc1nc2cc(NC(=O)c3cc4cc(C(F)(F)F)cnc4n3Cc3cccc(F)c3)ccc2s1` has a melting point of 204 to 206 °C. In the case of `COc1ccc(C(=O)N2CCN(Cc3ccccc3)c3ccccc32)cc1OC`, the melting point is reported as 111 to 112 °C. Work on `CC(C)CN1N(C)Nc2c3ncnc-3c3ccncc3n21` yielded a melting point of 157 to 158 °C. For `Cc1cccc(C)c1NC(=S)C1(C)CCc2c(C)c(O)c(C)c(C)c2O1` (stereo not given), the melting point was 122 to 123 °C. Compound `CC(=O)c1ccc(Nc2cccc(-c3ccccn3)c2)c([N+](=O)[O-])c1` has a melting point of 195 to 196 °C. With `CC(C)n1c(=O)ccc2cnc(S(C)=O)nc21` (stereo not given) the melting point was 132 to 133 °C. `O=C(O)c1cc(NCc2ccccc2)c(-c2ccccc2)c([N+](=O)[O-])c1` showed a melting point of 188 to 189 °C. For `COc1cccc([C@H]2O[C@H](CC(=O)Nc3ccc(CC(=O)O)cc3)C(=O)N(CC(C)(C)CO)c3ccc(Cl)cc32)c1OC`, the melting point was 142 to 144 °C. With `CCOC(=O)C(CC(=O)c1cc(F)ccc1OC)(NC(C)=O)C(=O)OCC` the melting point was 123 to 124 °C. Compound `COc1ccc(C(=O)Nc2ccccc2C(C)c2ccccn2)cc1` (stereo not given) has a melting point of 125 to 126 °C. `O=C1N[C@@H](C(=O)O)CCCCCC[C@@H]1CS` (relative stereo) gave a melting point of 180 to 185 °C. `Cc1cc(C)c(S(=O)(=O)OCCC2CCN(S(=O)(=O)c3c(C)cc(C)cc3C)CC2)c(C)c1` showed a melting point of 93.5 to 94 °C. Compound `CC(Cc1nc(-c2ccccc2)nc2ccccc12)C(=O)NC(CO)c1ccccc1` (stereo not given) has a melting point of 199 °C. With `N#CCc1cc(=O)c(OCc2ccccc2)cn1Cc1ccccc1` the melting point was 175 to 180 °C. Work on `O=c1c2ccccc2cnn1Cc1ccccc1` yielded a melting point of 104 to 105 °C. For `Cc1cc(C)c(N2c3ccccc3Sc3ccccc32)c(C)c1`, the melting point was 192 to 200 °C. `COC(=O)C1=C(C)NC(C)=C(C(=O)OC(C)CCl)C1c1cccc([N+](=O)[O-])c1` (stereo not given) showed a melting point of 95 to 102 °C. Compound `COC(=O)c1ccccc1NC(=O)Cc1ccccc1C` has a melting point of 80 to 82 °C. Work on `CCCCCCCCCCCC(=O)NC(C)c1c[nH]c(CCCCCCCCCCC)n1` (stereo not given) yielded a melting point of 56 to 59 °C. Work on `CCOC(=O)Cc1ccc(NC(=O)/C=C/c2c(C)noc2-c2ccccc2)cc1` yielded a melting point of 164 to 165 °C. Work on `COC(=O)C1CCCn2c(=O)n(CSC(C)=O)c(=O)n21` (stereo not given) yielded a melting point of 100 to 102 °C. `CCOP(=O)(CC(=O)Nc1cc2c(Nc3ccc(F)c(Br)c3)ncnc2cn1)OCC` showed a melting point of 214 to 217 °C. For `CCCCCCOc1ccc(CC2SC(=O)NC2=O)cc1` (stereo not given), the melting point was 52 to 54 °C. `CC(C)(C)OC(=O)NC(Cc1ccc(CO)cc1)c1cccnc1` (stereo not given) gave a melting point of 130 °C. Compound `Cc1cc(C2=Nn3cc(C(F)(F)F)nc3SC2c2ccc(F)cc2)cc2c1OCC(=O)N2` (stereo not given) has a melting point of 136 to 138 °C. With `c1ccc(OC2CCN(CCc3c[nH]c4ccccc34)CC2)cc1` the melting point was 123 to 125 °C. `O=C(OC(c1ccccc1)c1ccccc1)c1c(-c2ccccc2)oc2c(CCl)cccc2c1=O` gave a melting point of 186 °C. `CCCCOc1cc(/C=C/C(=O)O)n(Cc2ccc(C(F)(F)F)cc2)n1` showed a melting point of 153 to 155 °C. Work on `Cc1cc(OCc2ccccc2)c2cc(C(=O)N(C)C)[nH]c2c1` yielded a melting point of 205 to 207 °C. In the case of `CC(Cl)(Cl)C(NC(=O)c1cccc(Cl)c1)Nc1c(Nc2cccnc2)c(=O)c1=O` (stereo not given), the melting point is reported as 202 to 204 °C. `COc1ccc(-c2nc(N)nc(NC(=O)c3cccnc3)n2)c2ccccc12` showed a melting point of 208 to 209 °C. Compound `CC1(C)C(C=CC(=O)Cl)C1C(=O)OC(C#N)c1cccc(Oc2ccccc2)c1` (stereo not given) has a melting point of 86 °C. `Cc1nc(N(C)C)ccc1N1CCCn2c1nc1c(Cl)ccc(C(OC(F)F)C(F)(F)F)c12` (stereo not given) showed a melting point of 233 to 235 °C. Work on `CN(c1c(Cl)ccc2cc(C(N)=S)[nH]c12)S(=O)(=O)c1cccs1` yielded a melting point of 200 to 201 °C. `FC1(F)CCC(n2ncc3c(Br)cncc32)CC1` gave a melting point of 172 to 173 °C. Compound `CC(=O)N1CCCCc2ccc(C(=O)CCN(C)C)cc21` has a melting point of 68 to 70 °C. Work on `O=C1NCN2c3ccccc3Sc3cccc1c32` yielded a melting point of 187 to 192 °C. Work on `Cc1ccc(-c2nn(-c3ccccc3C)c(N)c2C(N)=O)cc1` yielded a melting point of 133 to 135 °C. `Cc1c(OCC(F)(F)F)ccnc1CSc1nc2cc(CO)ccc2[nH]1` gave a melting point of 153 to 155 °C. Compound `CC(=O)Nc1cccc(NC(=O)c2cccc(S(=O)(=O)N3CCCCCC3)c2)c1` has a melting point of 117 to 120 °C. `COc1ccc(-c2[nH]nc3c2C(=O)c2c(NC(=O)CCNc4ccncc4)cccc2-3)cc1` gave a melting point greater than 300 °C. With `C[C@]12CC/C(=C\F)C=C1CC[C@@H]1[C@@H]2CC[C@]2(C)C(=O)CC[C@@H]12` the melting point was 101 to 102 °C. Compound `CC(C)(C)NC(=O)[C@@H]1C[C@@H](O)CN1C(=O)OC(C)(C)C` has a melting point of 192 to 193 °C. Work on `NC(=O)C(c1ccc(C(=O)O)cc1)C(Cc1ccccc1)c1ccccc1N1CCCCC1` (stereo not given) yielded a melting point of 214 to 215 °C. `CCOC(=O)N=c1ccc(C)cn1Cc1cccc(C(F)(F)F)c1` gave a melting point of 121 °C. `O=C(NCCO[N+](=O)[O-])c1cscn1` showed a melting point of 105 to 108 °C. Work on `Cc1ccc(-c2ccc3c(c2)C=C(C(=O)NC2CCN(CCC4CCCCC4)CC2)CCO3)cc1` yielded a melting point of 193 to 196 °C. For `COc1ccc(C2CCOCC2)c2sc(NC(=O)c3ccnc(CN4CCOCC4)c3)nc12`, the melting point was 199 to 201 °C. `CC(C)C1Sc2ccccc2NC(=O)C1NC(=O)C(F)(F)F` (stereo not given) gave a melting point of 212 to 215 °C.
